Measured values taken from patent publication US20140243292A1, “SUBSITUTED 2-(CHROMAN-6-YLOXYL)-THIAZOLES AND THEIR USE AS PHARMACEUTICALS” (Sanofi, priority 2011, published 2014).
Structures can show the parent of a compound that is named as a salt.

Molecular target: T1, human NCX1 (Homo sapiens, UniProt P32418)
T1 construct: expressed in transfected cells
Assay: NCX1 inhibition, reverse mode (Ca2+ influx into cells), FLIPR Fluo-4 assay
Type: cell-based
Conditions: inhibition of NCX1 in reverse mode (Ca2+ influx into cells); read-out: NCX1rv IC50
Excerpt: The sodium/calcium exchanger NCX1 can transport calcium ions and sodium ions through the cell membrane. The transport is an exchange of Ca^2+ and Na^+ in two directions depending on membrane potential and ion gradients. At the first direction, named “forward mode” or “calcium export mode”, Ca^2+ is transported out of the cell and Na^+ is transported into the cell. At the other direction, named “reverse mode” or “calcium import mode”, the transport directions are vice versa. The effect of the compounds of the invention on NCX1 was determined in CHO cells stably expressing human NCX1 (gene symbol SLC8A1; cf. WO 2009/115238). The assay is based on the monitoring of intracellular Ca^2+ concentrations using a calcium-sensitive fluorescence dye which is detected by means of a FLIPR device (Fluorimetric Imaging Plate Reader, Molecular Devices).
The assay is based on the monitoring of intracellular Ca^2+ concentrations using the calcium-sensitive dye Fluo-4. CHO cells expressing NCX1 were loaded with the dye by means of the acetoxymethyl ester Fluo-4 AM (Invitrogen, F14202), which is cleaved intracellularly by esterase activity to yield the charged species of free Fluo-4. After an preincubation period with the test compound, Gramicidine (Sigma, G5002) was added. Gramicidine is an ionophor for Na^+ ions mediating an increase of intracellular Na^+ ions. Consequently, intracellular Na^+ ions are exchanged against extracellular Ca^2+ ions (Ca^2+ influx, reverse mode). The intracellular elevation of Ca^2+ ions was detected by measuring the fluorescence of Fluo-4 at a wavelength of 520 nm by a FLIPR device.
Briefly, for the reverse mode transport assay 18000 cells per well were seeded into a 96 well microplate (Corning COSTAR 3904) and incubated overnight in culture medium (1× Nut Mix F12 (Ham) (Gibco, 21765-029); 10% (v/v) fetal calf serum (PAA Gold, A15-649); 450 μg/ml Geneticin (Gibco, 10131-027)). A total volume of 100 μl medium per well was used. For the preparation of the FLIPR assay, the culture medium was removed from the plates and 100 μl of dye solution (2 μM Fluo-4 AM; 0.02% (v/v) Pluronic F-127 (20%, Invitrogen, P3000MP); 0.1% (v/v) bovine albumin solution (30% (v/v), Sigma, A9205) in assay buffer (133.8 mM NaCl (Sigma, S5886); 4.7 mM KCl (Sigma, P3911); 1.25 mM MgCl2 (Merck, 1.05833.0250); 3.5 mM CaCl2 (Merck, 1.02083.0250); 5 mM glucose (Sigma, G7021); 10 mM Hepes (Sigma, H4034); 0.01% (v/v) Pluronic F-127 (5%, Sigma, P2443); 2.5 mM Probenecid (Maybridge, SB00915EB); pH 7.4)) were added into each well. The plates were incubated in the dark at room temperature for 80 min. After the incubation period, the dye solution was removed and the wells were washed with 100 μl of assay buffer. Then 80 μl of a solution of the test compound in assay buffer in different concentrations were added into the wells. The plates were incubated at 16° C. for 45 min. Meanwhile a 60 μM solution of Gramicidine in assay buffer (4° C.) was prepared and stored in the wells of a 96 well microplate (96 well microplate, polypropylene, U-shape (Greiner Bio-One, 650201)) at 4° C. until measurement was started. The fluorescence monitoring was performed at 240 measuring points with measurement intervals of 2 sec. After the fifth measuring point, 40 μl of the Gramicidine solution were added to each well of the assay plates to give a final Gramicidine concentration of 20 μM. For the determination of the IC50 values the minimal fluorescence value was subtracted from the maximal fluorescence value for all measuring points. The calculation of the IC50 values via the percentage inhibitions of Ca^2+ influx into cells (reverse mode) effected by the test compound was performed in Biost@t Speed 2.0.

c1ccc(C2CCc3cc(Oc4ncc(CN5C6CCC5CC6)s4)ccc3O2)cc1 (stereo not drawn) [compound 121] and CN1CCN(Cc2cnc(Oc3ccc4c(c3)CCC(c3ccccc3)O4)s2)CC1 (stereo not drawn) [compound 122] are within 1.5-fold of each other in IC50: 600 nM for the first, 800 nM for the second.

CN1CCOc2cc(S(=O)(=O)NCc3cnc(Oc4ccc5c(c4)CCC(c4ccccc4)O5)s3)ccc21 (stereo not drawn) [compound 123] and Cc1nc2ccc(S(=O)(=O)NCc3cnc(Oc4ccc5c(c4)CCC(c4ccccc4)O5)s3)cc2s1 (stereo not drawn) [compound 124] are within 1.5-fold of each other in IC50: 1100 nM for the first, 900 nM for the second.

Going from Cc1nc(C)c(S(=O)(=O)NCc2cnc(Oc3ccc4c(c3)CCC(c3ccccc3)O4)s2)s1 (stereo not drawn) [compound 126] to Cc1n[nH]c(C)c1S(=O)(=O)NCc1cnc(Oc2ccc3c(c2)CCC(c2ccccc2)O3)s1 (stereo not drawn) [compound 131], the IC50 rises from 600 nM to 23800 nM (40-fold).

Compared with Cc1ncc(S(=O)(=O)NCc2cnc(Oc3ccc4c(c3)CCC(c3ccccc3)O4)s2)n1C (stereo not drawn) [compound 127], Cc1nc(S(=O)(=O)NCc2cnc(Oc3ccc4c(c3)CCC(c3ccccc3)O4)s2)cn1C (stereo not drawn) [compound 163] is 2.8-fold lower in IC50: 1100 nM for the first, 400 nM for the second.

First: Cn1nccc1S(=O)(=O)NCc1cnc(Oc2ccc3c(c2)CCC(c2ccccc2)O3)s1 (stereo not drawn) [compound 128]
Second: Cn1cc(S(=O)(=O)NCc2cnc(Oc3ccc4c(c3)CCC(c3ccccc3)O4)s2)cn1 (stereo not drawn) [compound 129]
The IC50 of the first is 3-fold lower: 300 nM for the first, 900 nM for the second.

Compared with Cc1c(S(=O)(=O)NCc2cnc(Oc3ccc4c(c3)CCC(c3ccccc3)O4)s2)cnn1C(C)C (stereo not drawn) [compound 130], Cc1c(S(=O)(=O)NCc2cnc(Oc3ccc4c(c3)CCC(c3ccccc3)O4)s2)cnn1C (stereo not drawn) [compound 133] is 1.8-fold lower in IC50: 700 nM for the first, 400 nM for the second.

First: CCn1cc(S(=O)(=O)NCc2cnc(Oc3ccc4c(c3)CCC(c3ccccc3)O4)s2)cn1 (stereo not drawn) [compound 132]
Second: CCn1cc(CNCc2cnc(Oc3ccc4c(c3)CCC(c3ccccc3)O4)s2)c(C)n1 (stereo not drawn) [compound 139]
The IC50 of the first is 1.7-fold lower: 300 nM for the first, 500 nM for the second.

Compared with Cc1cnc(CNCc2cnc(Oc3ccc4c(c3)CCC(c3ccccc3)O4)s2)cn1 (stereo not drawn) [compound 135], Cc1cc(CNCc2cnc(Oc3ccc4c(c3)CCC(c3ccccc3)O4)s2)no1 (stereo not drawn) [compound 140] is 2.5-fold lower in IC50: 500 nM for the first, 200 nM for the second.

Going from Cc1ccn(CCNCc2cnc(Oc3ccc4c(c3)CCC(c3ccccc3)O4)s2)n1 (stereo not drawn) [compound 136] to c1ccc(C2CCc3cc(Oc4ncc(CNCCn5cccn5)s4)ccc3O2)cc1 (stereo not drawn) [compound 149], the IC50 falls from 500 nM to 300 nM (1.7-fold). The second is the more potent here.

Cc1nn(C)cc1CNCc1cnc(Oc2ccc3c(c2)CCC(c2ccccc2)O3)s1 (stereo not drawn) [compound 137] and Cc1c(CNCc2cnc(Oc3ccc4c(c3)CCC(c3ccccc3)O4)s2)cnn1C (stereo not drawn) [compound 138] are within 1.5-fold of each other in IC50: 400 nM for the first, 300 nM for the second.

Cc1cc(CNCc2cnc(Oc3ccc4c(c3)CCC(c3ccccc3)O4)s2)n(C)n1 (stereo not drawn) [compound 141] and Cc1cc(CNCc2cnc(Oc3ccc4c(c3)CCC(c3ccccc3)O4)s2)nn1C (stereo not drawn) [compound 147] are within 1.5-fold of each other in IC50: 400 nM for the first, 300 nM for the second.

First: c1ccc(C2CCc3cc(Oc4ncc(CNCCCn5cccn5)s4)ccc3O2)cc1 (stereo not drawn) [compound 142]
Second: Cn1nccc1CNCc1cnc(Oc2ccc3c(c2)CCC(c2ccccc2)O3)s1 (stereo not drawn) [compound 146]
The IC50 of the first is 1.5-fold higher: 300 nM for the first, 200 nM for the second. The second is the more potent here.

First: Cc1cc(C)nc(CNCc2cnc(Oc3ccc4c(c3)CCC(c3ccccc3)O4)s2)n1 (stereo not drawn) [compound 143]
Second: Cc1cc(CNCc2cnc(Oc3ccc4c(c3)CCC(c3ccccc3)O4)s2)on1 (stereo not drawn) [compound 160]
The IC50 of the first is 2.5-fold higher: 500 nM for the first, 200 nM for the second.

Going from C1=C(CNCc2cnc(Oc3ccc4c(c3)CCC(c3ccccc3)O4)s2)N2CCCN=C2S1 (stereo not drawn) [compound 144] to c1ccc(C2CCc3cc(Oc4ncc(CNCc5ccno5)s4)ccc3O2)cc1 (stereo not drawn) [compound 159], the IC50 falls from 800 nM to 100 nM (8-fold). The second is the more potent here.

Going from c1ccc(C2CCc3cc(Oc4ncc(CNCc5cccnc5N5CCOCC5)s4)ccc3O2)cc1 (stereo not drawn) [compound 145] to c1ccc(C2CCc3cc(Oc4ncc(CNCc5ccnc(N6CCOCC6)c5)s4)ccc3O2)cc1 (stereo not drawn) [compound 162], the IC50 falls from 900 nM to 400 nM (2.2-fold). The second is the more potent here.

Compared with Cc1c(C(C)NCc2cnc(Oc3ccc4c(c3)CCC(c3ccccc3)O4)s2)cnn1C (stereo not drawn) [compound 148], Cc1cc(C)n(CCNCc2cnc(Oc3ccc4c(c3)CCC(c3ccccc3)O4)s2)n1 (stereo not drawn) [compound 150] is 2-fold higher in IC50: 400 nM for the first, 800 nM for the second. The first is the more potent here.

Cc1csc(CCNCc2cnc(Oc3ccc4c(c3)CCC(c3ccccc3)O4)s2)n1 (stereo not drawn) [compound 151] and Cc1noc(C)c1CCCNCc1cnc(Oc2ccc3c(c2)CCC(c2ccccc2)O3)s1 (stereo not drawn) [compound 153] are within 1.5-fold of each other in IC50: 400 nM for the first, 500 nM for the second.

Cc1noc(C)c1CNCc1cnc(Oc2ccc3c(c2)CCC(c2ccccc2)O3)s1 (stereo not drawn) [compound 152] and Oc1cc(CNCc2cnc(Oc3ccc4c(c3)CCC(c3ccccc3)O4)s2)ccn1 (stereo not drawn) [compound 154] are the same in IC50: 300 nM for the first, 300 nM for the second.

Nc1cc(CNCc2cnc(Oc3ccc4c(c3)CCC(c3ccccc3)O4)s2)ccn1 (stereo not drawn) [compound 155] and c1ccc(C2CCc3cc(Oc4ncc(CNCc5ccncn5)s4)ccc3O2)cc1 (stereo not drawn) [compound 161] are within 1.5-fold of each other in IC50: 400 nM for the first, 300 nM for the second.

Compared with c1ccc(C2CCc3cc(Oc4ncc(CNCc5nnc6ccccn56)s4)ccc3O2)cc1 (stereo not drawn) [compound 156], N#Cc1ccc(CNCc2cnc(Oc3ccc4c(c3)CCC(c3ccccc3)O4)s2)cn1 (stereo not drawn) [compound 157] is 2-fold lower in IC50: 400 nM for the first, 200 nM for the second.

CN1CC(=O)N(CC(=O)NCc2cnc(Oc3ccc4c(c3)CCC(c3ccccc3)O4)s2)C1=O (stereo not drawn) [compound 164] and O=C(CN1CCCC1=O)NCc1cnc(Oc2ccc3c(c2)CCC(c2ccccc2)O3)s1 (stereo not drawn) [compound 165] are within 1.5-fold of each other in IC50: 700 nM for the first, 500 nM for the second.

Going from Cc1nc(Oc2ccc3c(c2)CCC(c2ccccc2)O3)sc1C(=O)NCc1ccno1 (stereo not drawn) [compound 166] to Cc1nc(Oc2ccc3c(c2)CC[C@@H](c2ccccc2)O3)sc1C(=O)NCc1ccno1 [compound 168], the IC50 falls from 300 nM to 200 nM (1.5-fold).

Cc1nc(Oc2ccc3c(c2)CCC(c2ccccc2)O3)sc1C(=O)NCc1ccnc(Cl)c1 (stereo not drawn) [compound 167, hydrochloride] and Cc1nc(Oc2ccc3c(c2)CC[C@@H](c2ccccc2)O3)sc1C(=O)NCc1ccnc(Cl)c1 [compound 178, 4-Methyl-2-((S)-2-phenyl-chroman-6-yloxy)-thiazole-5-carboxylic acid (2-chloro-pyridin-4-ylmethyl)-amide hydrochloride] are within 1.5-fold of each other in IC50: 500 nM for the first, 400 nM for the second.

Cc1nc(Oc2ccc3c(c2)CC[C@@H](c2ccccc2)O3)sc1C(=O)NCCc1ccncc1 [compound 169, hydrochloride] and Cc1nc(Oc2ccc3c(c2)CCC(c2ccccc2)O3)sc1C(=O)NCCc1ccncc1 (stereo not drawn) [compound 170, hydrochloride] are the same in IC50: 300 nM for the first, 300 nM for the second.

Compared with O=C(NCc1ccno1)c1cnc(Oc2ccc3c(c2)CC[C@@H](c2ccccc2)O3)s1 [compound 171], O=C(NCc1ccno1)c1cnc(Oc2ccc3c(c2)CC[C@H](c2ccccc2)O3)s1 [compound 172] is 4-fold higher in IC50: 100 nM for the first, 400 nM for the second. The first is the more potent here.

First: Cc1noc(C)c1CCNC(=O)c1cnc(Oc2ccc3c(c2)CCC(c2cccc(O)c2)O3)s1 (stereo not drawn) [compound 173]
Second: Cc1ccccc1C1CCc2cc(Oc3ncc(C(=O)NCCc4c(C)noc4C)s3)ccc2O1 (stereo not drawn) [compound 176]
The IC50 of the first is 5.8-fold higher: 2300 nM for the first, 400 nM for the second. The second is the more potent here.

Going from O=C(NCc1ccncc1)c1cnc(Oc2ccc3c(c2)CCC(c2cccc(O)c2)O3)s1 (stereo not drawn) [compound 174, hydrochloride] to Cc1ccccc1C1CCc2cc(Oc3ncc(C(=O)NCc4ccncc4)s3)ccc2O1 (stereo not drawn) [compound 179], the IC50 falls from 800 nM to 500 nM (1.6-fold).

Compared with O=C(CN1CC[C@@H](O)C1)NCc1cnc(Oc2ccc3c(c2)CCC(c2ccccc2)O3)s1 (stereo partly drawn) [compound 175], COC(=O)CNC(=O)c1cnc(Oc2ccc3c(c2)CC[C@@H](c2ccccc2)O3)s1 [compound 181] is 2-fold lower in IC50: 400 nM for the first, 200 nM for the second.

With CCOC(=O)[C@H](C)NC(=O)c1cnc(Oc2ccc3c(c2)CC[C@@H](c2ccccc2)O3)s1 [compound 180] the IC50 was 200 nM.
